Measured values from patent EP1844039B1, “5-SUBSTITUTED QUINOLINE AND ISOQUINOLINE DERIVATIVES, A METHOD FOR THE PRODUCTION THEREOF AND THEIR USE AS ANTIPHLOGISTICS” (priority 2004, dated 2006).
pEC50, pIC50: −log10 of the molar value.

Legend:
IL-8 = assay: Inhibition of LPS-induced IL-8 secretion in THP-1 cells (ELISA of supernatant); format: cell-based, menschlichen; conditions: for Efficacy: Efficacy von Dexamethason = 100%; for pIC50: Homo sapiens
Source text: Die erfindungsgemäßen Verbindungen der allgemeinen Formel (IIa) und (IIb) hemmen die durch Lipopolysaccharid (LPS) induzierte Sekretion des Zytokins IL-8 in der menschlichen Monozytenzelline THP-1.

[1] = tested on: Tyrosinaminotranferase (TAT); assay: Induction of tyrosine aminotransferase (TAT) in hepatoma cells, 24 h treatment, photometric; format: cell-based, Ratten; conditions: rat hepatoma cells; for Efficacy: Efficacy von Dexamethason = 100%
Source text: Immunologische Grundlagen, Pharmakologie und Therapierichtlinien, Wissenschafliche Verlagsgesellschaft mbH, Stuttgart, 1998]. Ursache hierfür ist die Stimulation der Gluconeogenese in der Leber durch Induktion der hierfür verantwortlichen Enzyme und durch freie Aminosäuren, die aus dem Abbau von Proteinen (katabole Wirkung der Glucocorticoide) entstehen. Ein Schlüsselenzym des katabolen Stoffwechsels in der Leber ist die Tyrosinaminotranferase (TAT). Die Aktivität dieses Enzyms kann photometrisch aus Zellkulturen von behandelten Ratten-Hepatomzellen bestimmt werden. Die Zellen werden für 24 Stunden mit den Testsubstanzen behandelt und anschließend die TAT-Aktivität gemessen.

[2] = Skin atrophy induction, 18 days daily local treatment, skin fold thickness measurement; format: in vivo; conditions: rats
Source text: Eine weitere, besonders nach lokaler Therapie, auftretende unerwünschte Wirkung ist die Induktion einer Hautatrophie, die zu einem Verlust der Haut an Dicke, Elastizität und letztlich der mechanischen Belastbarkeit der Haut führt. Das Potential einer Substanz, Hautatrophie zu induzieren, kann in Ratten bestimmt werden. Die Tiere werden dafür 18 Tage täglich lokal in äquieffektiven Dosierungen mit den Testsubstanzen behandelt. Mittels einer Hautfaltendickenmessung läßt sich die Abnahme der Hautdicke über die Behandlungszeit verfolgen.
Im Vergleich zu Clobetasolpropionat, das bei einer Konzentration von 0.01 % (maximale anti-inflammatorische Wirkung wird erreicht) zu einer 65%igen Reduktion der Hautdicke führt, ist bei Beispiel 1 bei einer Konzentration von 0.1 % (maximale anti-inflammatorische Wirkung wird erreicht) nur eine 41 %ige Reduktion festzustellen.
Dieser Vorteil ist auch gegenüber den Substanzen aus der Anmeldung WO03/082827 zu sehen; beispielsweise induziert das Eutomer von Beispiel 36 bereits bei einer Konzentration von 0.06% (maximale anti-inflammatorische Wirkung) eine 60%ige Reduktion der Hautdicke.

Structure (SMILES) | Efficacy (IL-8) [%] | pIC50 (IL-8) | pEC50 [1] | Efficacy [1] [%] | Reduktion der Hautdicke ([2]; concentration 0.1 % (maximal anti-inflammatory effect reached)) [%] | Reduktion der Hautdicke ([2]; concentration 0.01 % (maximal anti-inflammatory effect reached)) [%]
Cc1ccc2c(NCC(O)(CC(C)(C)c3cc(F)cc4c3OCC4)C(F)(F)F)cccc2n1 (racemic) [Beispiel 1, 5-[4-(5-Fluor-2,3-dihydrobenzofuran-7-yl)-2-hydroxy-4-methyl-2-trifluormethyl-pentylamino]-2-methylchinolin] | 74 | 8.23 | 8.43 | 93 | 41 | –
C[C@]12C=CC(=O)C=C1CC[C@@H]1[C@@H]2[C@@H](O)C[C@@]2(C)[C@H]1CC[C@]2(O)C(=O)CO [Prednisolon, reference compound] | 96 | 7.89 | 8.59 | 103 | – | –
CCC(=O)O[C@]1(C(=O)CCl)[C@@H](C)C[C@H]2[C@@H]3CCC4=CC(=O)C=C[C@]4(C)[C@@]3(F)[C@@H](O)C[C@@]21C [Clobetasolpropionat, reference compound] | – | – | – | – | – | 65
Cc1ccc2c(NCC(O)(CC(C)(C)c3cc(F)cc4c3OCC4)C(F)(F)F)ccc(F)c2n1 (racemic) [Beispiel 10, 8-Fluor-5-[4-(5-Fluor-2,3-dihydrobenzofuran-7-yl)-2-hydroxy-4-methyl-2-trifluormethyl-pentylamino]-2-methylchinolin] | 86 | 7.68 | 8.00 | 92 | – | –
Cn1ccc2c(NCC(O)(CC(C)(C)c3cc(F)cc4c3OCC4)C(F)(F)F)cccc2c1=O (racemic) [Beispiel 11, 5-[4-(5-Fluor-2,3-dihydrobenzofuran-7-yl)-2-hydroxy-4-methyl-2-trifluormethylpentylamino]-2-methylisochinol-1(2H)-on] | 61 | 8.07 | 8.40 | 86 | – | –
